Measurements from the supplement of paper PMC10627819.

What was measured:
B. subtilis 168 [1] = assay: fitness (endpoint OD595 vs no drug) (fraction); higher = more growth
Outline: (§1)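 Fitness compares growth at the stationary-phase transition with the robust mean of no-drug control wells, as a ratio of optical densities. The ratio is capped at 1. Wells of 384-well plates held 30 µl, or 55 µl for S. pneumoniae, inoculated at OD595 0.01. Readings at OD595 every 30 min for 14 h at 37 °C were corrected against the first reading.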

S. pneumoniae D39V [2] = assay: Bliss interaction score (quartile over a dose matrix) (fitness difference); higher = more antagonism (negative = synergy)
Outline: (§2)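 Fitness here means normalised growth, inferred for single drugs from the combination data. Growth was OD595 at entry into stationary phase, divided by the plate's robust no-drug mean and capped at 1. The Bliss score is observed minus expected fitness, with the expectation being the product, and its quartiles span technical, biological and donor/recipient replicates.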

S. aureus Newman = assay: as above
Outline: as §2

S. aureus DSM 20231 = assay: as above
Outline: as §2

B. subtilis 168 [3] = assay: as above
Outline: as §2

S. pneumoniae D39V [4] = assay: fitness (endpoint OD595 vs no drug) (fraction); higher = more growth
Outline: as §1
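Throughout, for Bliss interaction score (quartile over a dose matrix): first quartile when negative (synergy) and third quartile when positive (antagonism).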
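Throughout, for fitness (endpoint OD595 vs no drug): OD595 on entry to stationary phase over no-drug wells; at most 1.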

COc1c(N2C[C@@H]3CCCN[C@@H]3C2)c(F)cc2c(=O)c(C(=O)O)cn(C3CC3)c12 [Moxifloxacin] + CO[C@@H]1[C@@H](OC(N)=O)[C@@H](O)[C@H](Oc2ccc3c(O)c(NC(=O)c4ccc(O)c(CC=C(C)C)c4)c(=O)oc3c2C)OC1(C)C [Novobiocin]
fitness, B. subtilis 168 [1]
Conditions	first compound 0.0312 µg/mL	first compound 0.0625 µg/mL	first compound 0.125 µg/mL	first compound 2 µg/mL	first compound 4 µg/mL	first compound 8 µg/mL
partner 0.0125 µg/mL	–	–	–	0.0294	0.0275	0.0124
partner 0.025 µg/mL	–	–	–	0.016	0.0146	0.0125
partner 0.05 µg/mL	0.0425	0.0373	0.0299	0.0168	0.0053	0.0129
partner 0.1 µg/mL	0.0335	0.0227	0.0176	–	–	–
partner 0.2 µg/mL	0.0331	0.0211	0.0159	–	–	–

fitness, B. subtilis 168 [1], one replicate
Conditions	first compound 0.0312 µg/mL	first compound 0.0625 µg/mL	first compound 0.125 µg/mL
partner 0.125 µg/mL	0.0427	0.0166	0.0119
partner 0.25 µg/mL	0.0377	0.0432	0.0101
partner 0.5 µg/mL	0.0342	0.0161	0.011

Conditions	Bliss interaction score
B. subtilis 168 [3]	-0.0346
S. aureus DSM 20231	-0.0723
S. aureus Newman	-0.113
S. pneumoniae D39V [2]	0.0943

CCC[C@@H]1C[C@@H](C(=O)N[C@@H]([C@H]2O[C@H](SC)[C@H](O)[C@@H](O)[C@H]2O)[C@@H](C)O)N(C)C1 [Lincomycin] + CN[C@@H]1[C@H](O[C@H]2[C@H](O[C@H]3[C@H](O)[C@@H](O)[C@H](N=C(N)N)[C@@H](O)[C@@H]3N=C(N)N)O[C@@H](C)[C@]2(O)C=O)O[C@@H](CO)[C@H](O)[C@H]1O [Streptomycin]
fitness, S. pneumoniae D39V [4], one replicate
Conditions	first compound 0.2 µg/mL	first compound 0.4 µg/mL	first compound 0.8 µg/mL
partner 2 µg/mL	0.759	0.7	0.421
partner 16 µg/mL	0.509	0.369	0.0724

fitness
Conditions	first compound 0.1 µg/mL	first compound 0.2 µg/mL	first compound 0.215 µg/mL	first compound 0.4 µg/mL	first compound 0.43 µg/mL	first compound 0.8 µg/mL	first compound 0.86 µg/mL
B. subtilis 168 [1], partner 2 µg/mL	0.935	0.913	–	0.9	–	–	–
B. subtilis 168 [1], partner 8 µg/mL	–	–	–	0.0442	–	–	–
S. pneumoniae D39V [4], partner 2 µg/mL	–	–	0.768	–	0.681	–	0.231
S. pneumoniae D39V [4], partner 4 µg/mL	–	0.699	0.784	0.627	0.686	0.305	0.284
S. pneumoniae D39V [4], partner 8 µg/mL	–	0.588	0.796	0.539	0.667	0.203	0.195

Conditions	Bliss interaction score
B. subtilis 168 [3]	0.105
S. aureus DSM 20231	-0.107
S. aureus Newman	0.0761
S. pneumoniae D39V [2]	-0.129

CCC[C@@H]1C[C@@H](C(=O)N[C@@H]([C@H]2O[C@H](SC)[C@H](O)[C@@H](O)[C@H]2O)[C@@H](C)O)N(C)C1 [Lincomycin] + CCC(C)C1C(=O)NC(=C)C(=O)NC(C(=O)NC(CSCC(C(=O)N1)NC(=O)/C(=C/C)/NC(=O)C(C(C)CC)N)C(=O)NC2C(SCC(NC(=O)CNC(=O)C3CCCN3C2=O)C(=O)NC(CCCCN)C(=O)NC4C(SCC(NC(=O)CNC(=O)C(NC(=O)C(NC(=O)C(NC(=O)CNC4=O)C)CC(C)C)CCSC)C(=O)NC(CC(=O)N)C(=O)NC(CCSC)C(=O)NC(CCCCN)C(=O)NC5C(SCC6C(=O)NC(C(=O)NC(CSC(C(C(=O)N6)NC(=O)C(NC5=O)C)C)C(=O)NC(CO)C(=O)NC(C(C)CC)C(=O)NC(CC7=CN=CN7)C(=O)NC(C(C)C)C(=O)NC(=C)C(=O)NC(CCCCN)C(=O)O)CC8=CN=CN8)C)C)C)CC(C)C [Nisin]
main component drawn
Conditions	fitness
B. subtilis 168 [1], first compound 0.1 µg/mL, partner 0.5 µg/mL	0.888
B. subtilis 168 [1], first compound 0.1 µg/mL, partner 1 µg/mL	0.873
B. subtilis 168 [1], first compound 0.1 µg/mL, partner 2 µg/mL	0.542
B. subtilis 168 [1], first compound 0.2 µg/mL, partner 0.5 µg/mL	0.866
B. subtilis 168 [1], first compound 0.2 µg/mL, partner 1 µg/mL	0.839
B. subtilis 168 [1], first compound 0.2 µg/mL, partner 2 µg/mL	0.58
B. subtilis 168 [1], first compound 0.4 µg/mL, partner 0.5 µg/mL	0.903
B. subtilis 168 [1], first compound 0.4 µg/mL, partner 1 µg/mL	0.876
B. subtilis 168 [1], first compound 0.4 µg/mL, partner 2 µg/mL	0.643
S. pneumoniae D39V [4], first compound 0.2 µg/mL, partner 0.4275 µg/mL	0.751
S. pneumoniae D39V [4], first compound 0.2 µg/mL, partner 0.855 µg/mL	0.816
S. pneumoniae D39V [4], first compound 0.2 µg/mL, partner 1.71 µg/mL	0.0439
S. pneumoniae D39V [4], first compound 0.215 µg/mL, partner 3.2 µg/mL	0.0034
S. pneumoniae D39V [4], first compound 0.215 µg/mL, partner 6.4 µg/mL	0.0021
S. pneumoniae D39V [4], first compound 0.4 µg/mL, partner 0.4275 µg/mL	0.711
S. pneumoniae D39V [4], first compound 0.4 µg/mL, partner 0.855 µg/mL	0.197
S. pneumoniae D39V [4], first compound 0.4 µg/mL, partner 1.71 µg/mL	0.03
S. pneumoniae D39V [4], first compound 0.43 µg/mL, partner 3.2 µg/mL	0.0144
S. pneumoniae D39V [4], first compound 0.43 µg/mL, partner 6.4 µg/mL	0.0124
S. pneumoniae D39V [4], first compound 0.8 µg/mL, partner 0.4275 µg/mL	0.188
S. pneumoniae D39V [4], first compound 0.8 µg/mL, partner 0.855 µg/mL	0.124
S. pneumoniae D39V [4], first compound 0.8 µg/mL, partner 1.71 µg/mL	0.0586
S. pneumoniae D39V [4], first compound 0.86 µg/mL, partner 1.6 µg/mL	0.0707
S. pneumoniae D39V [4], first compound 0.86 µg/mL, partner 3.2 µg/mL	0.0001
S. pneumoniae D39V [4], first compound 0.86 µg/mL, partner 6.4 µg/mL	0.0011

fitness, B. subtilis 168 [1], one replicate, main component drawn
Conditions	partner 1.25 µg/mL	partner 1.6 µg/mL	partner 2.5 µg/mL	partner 3.2 µg/mL	partner 4 µg/mL	partner 5 µg/mL	partner 6.4 µg/mL	partner 8 µg/mL	partner 16 µg/mL
first compound 0.1 µg/mL	–	–	–	–	0.432	–	–	0.0171	0.0218
first compound 0.2 µg/mL	–	–	–	–	0.212	–	–	0.0182	0.0151
first compound 0.4 µg/mL	0.885	0.635	0.621	0.0271	0.202	0.0364	0.0378	0.0085	0.0174
first compound 0.8 µg/mL	0.858	0.572	0.573	0.0171	–	0.065	0.035	–	–
first compound 1.6 µg/mL	0.836	0.571	0.356	0.0205	–	0.0299	0.0358	–	–

main component drawn
Conditions	Bliss interaction score
B. subtilis 168 [3]	0.0535
S. aureus DSM 20231	0.117
S. aureus Newman	0.0755
S. pneumoniae D39V [2]	-0.0491

CCC[C@@H]1C[C@@H](C(=O)N[C@@H]([C@H]2O[C@H](SC)[C@H](O)[C@@H](O)[C@H]2O)[C@H](C)Cl)N(C)C1 [Clindamycin] + C[C@@H](O)[C@H]1C(=O)N2C(C(=O)O)=C(SCCNC=N)C[C@H]12 [Imipenem]
fitness, S. pneumoniae D39V [4]
Conditions	first compound 0.0125 µg/mL	first compound 0.015 µg/mL	first compound 0.025 µg/mL	first compound 0.03 µg/mL	first compound 0.05 µg/mL	first compound 0.06 µg/mL
partner 0.005 µg/mL	0.753	–	0.5	–	0.213	–
partner 0.0065 µg/mL	–	0.843	–	0.628	–	0.176
partner 0.01 µg/mL	0.763	–	0.486	–	0.202	–
partner 0.013 µg/mL	–	0.877	–	0.744	–	0.46
partner 0.02 µg/mL	0.758	–	0.468	–	0.19	–
partner 0.026 µg/mL	–	0.824	–	0.644	–	0.299

Conditions	Bliss interaction score
B. subtilis 168 [3]	0.159
S. aureus DSM 20231	0.0276
S. aureus Newman	-0.0198
S. pneumoniae D39V [2]	-0.0804
